Assays:
[1] = Ratio of catalytic constant to that of Michaelis-Menten constant for LTA4 hydrolase-catalyzed hydrolysis was determined
[2] = biological target: T1, Leukotriene A-4 hydrolase (Homo sapiens, UniProt P09960); assay: Compound was tested for inhibitory activity against Leukotriene A4 hydrolase from human leukocytes; NI means no inhibition at 1 mM
T1 sequence (P09960 whole entry): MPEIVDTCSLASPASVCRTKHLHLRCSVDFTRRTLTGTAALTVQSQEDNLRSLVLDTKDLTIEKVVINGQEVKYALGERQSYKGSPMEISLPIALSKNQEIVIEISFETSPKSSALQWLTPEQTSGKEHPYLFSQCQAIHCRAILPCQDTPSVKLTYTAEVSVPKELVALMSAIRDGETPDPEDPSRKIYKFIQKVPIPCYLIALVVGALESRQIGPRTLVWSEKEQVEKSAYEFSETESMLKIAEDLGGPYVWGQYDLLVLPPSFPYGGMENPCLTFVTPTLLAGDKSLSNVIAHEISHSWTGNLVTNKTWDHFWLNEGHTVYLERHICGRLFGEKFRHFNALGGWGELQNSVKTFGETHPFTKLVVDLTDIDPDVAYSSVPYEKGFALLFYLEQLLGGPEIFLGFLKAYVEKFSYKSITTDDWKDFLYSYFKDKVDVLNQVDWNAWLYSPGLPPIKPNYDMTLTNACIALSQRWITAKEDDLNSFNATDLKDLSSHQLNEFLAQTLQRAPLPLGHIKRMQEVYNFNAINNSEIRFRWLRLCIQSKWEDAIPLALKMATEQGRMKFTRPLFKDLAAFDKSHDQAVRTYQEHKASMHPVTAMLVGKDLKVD

[3] = biological target: T1, Leukotriene A-4 hydrolase; assay: Inhibitory activity against Leukotriene A4 hydrolase from human leukocytes
[4] = substrate: C[C@@H](N)C(=O)Nc1ccc([N+](=O)[O-])cc1; assay: (§1) Maximum velocity of amino acid amides was tested as substrates for LTA4 hydrolase-catalyzed hydrolysis
[5] = substrate: NCCCC[C@@H](N)C(=O)Nc1ccc([N+](=O)[O-])cc1; assay: as §1
[6] = substrate: C[C@H](N)C(=O)Nc1ccc([N+](=O)[O-])cc1; assay: Maximum velocity of amino acid amides was tested as substrates for Leukotriene A4 hydrolase
[7] = substrate: C[C@@H](N)C(=O)Nc1ccc([N+](=O)[O-])cc1; assay: (§2) Michaelis-Menten constant of compound for Leukotriene A4 hydrolase catalyzed hydrolysis was determined
[8] = substrate: CCCCC/C=C\C/C=C\C=C\C=C\[C@@H]1O[C@H]1CCCC(=O)O; assay: as §2
[9] = substrate: NC(N)=NCCC[C@@H](N)C(=O)Nc1ccc([N+](=O)[O-])cc1; assay: as §2
[10] = substrate: CC(C)C[C@H](N)C(=O)Nc1ccc([N+](=O)[O-])cc1; assay: as §2
[11] = substrate: O=C(Nc1ccc([N+](=O)[O-])cc1)[C@@H]1CCCN1; assay: as §2
[12] = substrate: NCCCC[C@@H](N)C(=O)Nc1ccc([N+](=O)[O-])cc1; assay: as §2
[13] = substrate: CCCCC/C=C\C/C=C\C=C\C=C\[C@@H]1O[C@H]1CCCC(=O)O; assay: (§3) Maximum velocity of amino acid amides was tested as substrates for Leukotriene A4 hydrolase catalyzed hydrolysis
[14] = substrate: NC(N)=NCCC[C@@H](N)C(=O)Nc1ccc([N+](=O)[O-])cc1; assay: as §3
[15] = substrate: CC(C)C[C@H](N)C(=O)Nc1ccc([N+](=O)[O-])cc1; assay: as §3
[16] = substrate: O=C(Nc1ccc([N+](=O)[O-])cc1)[C@@H]1CCCN1; assay: as §3

C[C@@H](N)C(=O)Nc1ccc([N+](=O)[O-])cc1 gave a k cat/Km [1] of 1200 M⁻¹ s⁻¹.

NCCCC[C@@H](N)C(=O)Nc1ccc([N+](=O)[O-])cc1 showed a k cat/Km [1] of 350 M⁻¹ s⁻¹.

With COC(=O)[C@H](O)[C@H](N)Cc1ccccc1 the IC50 [2] was “No inhibition”.

For N[C@H](Cc1ccccc1)[C@H](O)C(=O)O, the IC50 [2] was “No inhibition”.

With NC(Cc1ccccc1)P(=O)(O)NCC(=O)O (stereo unspecified) the IC50 [3] was roughly 200 µM.

For COC(=O)[C@H](O)[C@@H](N)Cc1ccccc1, the IC50 [3] was greater than 500 µM.

For N[C@@H](Cc1ccccc1)[C@H](O)C(=O)O, the IC50 [3] was greater than 1000 µM.

With N[C@@H](Cc1ccccc1)[C@H](O)C(=O)NCCC(=O)O the IC50 [3] was roughly 80 µM.

Work on CCCCC/C=C\C\C=C/C=C/C=C/[C@@H]1O[C@H]1CCCC(=O)O yielded a k cat/Km [1] of 90000 M⁻¹ s⁻¹.

O=C(Nc1ccc([N+](=O)[O-])cc1)[C@@H]1CCCN1 showed a k cat/Km [1] of 1500 M⁻¹ s⁻¹.

Work on N[C@H](Cc1ccccc1)[C@H](O)C(=O)NCCC(=O)O yielded an IC50 [3] of roughly 100 µM.

In the case of COC(=O)[C@@H](O)[C@H](N)Cc1ccccc1, the IC50 [2] is reported as “No inhibition”.

Molecule COC(=O)C(S)[C@H](N)Cc1ccccc1 (stereo partly specified) has an IC50 [3] greater than 250 µM.

COC(=O)C(S)[C@@H](N)Cc1ccccc1 (stereo partly specified) showed an IC50 [3] of roughly 250 µM.

NC(N)=NCCC[C@@H](N)C(=O)Nc1ccc([N+](=O)[O-])cc1 gave a k cat/Km [1] of 750 M⁻¹ s⁻¹.

In the case of CC(C)CC(N)C(=O)Nc1ccc([N+](=O)[O-])cc1 (single isomer, unassigned), the k cat/Km [1] is reported as 500 M⁻¹ s⁻¹.

In the case of C[C@H](CS)C(=O)N1CCC[C@H]1C(=O)O [CAPTOPRIL], the IC50 [3] is reported as 0.07 µM.

CCOC(=O)CC(F)(F)C(=O)/C=C/c1ccccc1 showed an IC50 [3] greater than 5000 µM.

B1: Leukotriene A-4 hydrolase (Homo sapiens), P09960 (protein)
chain: T1 sequence (P09960 whole entry)
For B1, the Vmax (nM min-1 mg-1) [4] was 530, the Vmax (nM min-1 mg-1) [5] was 30 and the Vmax (nM min-1 mg-1) [6] was 0. For the same molecule, the Km [7] was 500 µM, the Km [8] was 7.6 µM and the Km [9] was 200 µM. It also gave a Km [10] of 300 µM, a Km [11] of 100 µM and a Km [12] of 100 µM. It also gave a Vmax (nM min-1 mg-1) [13] of 572, a Vmax (nM min-1 mg-1) [14] of 140 and a Vmax (nM min-1 mg-1) [15] of 130. For the same molecule, the Vmax (nM min-1 mg-1) [16] was 130.

— ChEMBL document CHEMBL1125953, “Probing the inhibition of leukotriene A4 hydrolase based on its aminopeptidase activity” (Bioorg Med Chem Lett, 1991)
